Assays:
Conditions in all cases: exposure time: 72 h
[1] = tested on: FT3469 (normal neural stem cell line); assay: phenotypic distance (Euclidean, principal components) from DMSO controls (arbitrary units); higher = stronger morphological change
[2] = tested on: E31 (patient-derived glioblastoma stem cells of proneural subtype); assay: as above
[3] = tested on: E13 (patient-derived glioblastoma stem cells of classical subtype); assay: as above
[4] = tested on: E34 (patient-derived glioblastoma stem cells of proneural subtype); assay: as above
[5] = tested on: E21 (patient-derived glioblastoma stem cells of mesenchymal subtype); assay: as above
[6] = tested on: E28 (patient-derived glioblastoma stem cells of classical subtype); assay: as above
[7] = tested on: E57 (patient-derived glioblastoma stem cells of mesenchymal subtype); assay: as above
[8] = tested on: FT3469; assay: surviving fraction (nuclei count normalised to DMSO); higher = more cells surviving (less toxic)
[9] = tested on: E31; assay: as above
[10] = tested on: E13; assay: as above
[11] = tested on: E34; assay: as above
[12] = tested on: E21; assay: as above
[13] = tested on: E28; assay: as above
[14] = tested on: E57; assay: as above
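For phenotypic distance (Euclidean, principal components) from DMSO controls in this document: cell Painting imaging in 384-well plates, CellProfiler features reduced to at least 20 principal components, Euclidean distance versus same-plate DMSO vehicle wells (0.1% v/v), median over six images per well.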
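For surviving fraction (nuclei count normalised to DMSO) in this document: nuclei counted by high-content imaging of Hoechst-stained cells in laminin-coated 384-well plates, relative to 0.1% DMSO vehicle wells, with staurosporine as cell-death control.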

COc1cc([C@@H]2c3cc4c(cc3[C@@H](O[C@@H]3O[C@@H]5CO[C@@H](c6cccs6)O[C@H]5[C@H](O)[C@H]3O)[C@H]3COC(=O)[C@H]23)OCO4)cc(OC)c1O [Teniposide]
Conditions | phenotypic distance | surviving fraction
[1], 4.1 nM | 1.68 | –
[1], 12.3 nM | 2.44 | –
[1], 37 nM | 2.6 | –
[1], 111.1 nM | 2.26 | –
[1], 333.3 nM | 1.97 | –
[1], 1000 nM | 1.78 | –
[1], 3000 nM | 2.12 | –
[2], 4.1 nM | 4.09 | –
[2], 12.3 nM | 2.97 | –
[2], 37 nM | 3.3 | –
[2], 111.1 nM | 3.9 | –
[2], 333.3 nM | 2.97 | –
[2], 1000 nM | 2.67 | –
[2], 3000 nM | 3.37 | –
[3], 4.1 nM | 1.43 | –
[3], 12.3 nM | 3.27 | –
[3], 37 nM | 4.96 | –
[3], 111.1 nM | 5.68 | –
[3], 333.3 nM | 5.77 | –
[3], 1000 nM | 5.12 | –
[3], 3000 nM | 6.24 | –
[4], 4.1 nM | 1.81 | –
[4], 12.3 nM | 2.04 | –
[4], 37 nM | 3.24 | –
[4], 111.1 nM | 3.96 | –
[4], 333.3 nM | 4.04 | –
[4], 1000 nM | 2.46 | –
[4], 3000 nM | 2.97 | –
[5], 4.1 nM | 0.843 | –
[5], 12.3 nM | 2.77 | –
[5], 37 nM | 3.95 | –
[5], 111.1 nM | 5.39 | –
[5], 333.3 nM | 5.06 | –
[5], 1000 nM | 6.2 | –
[5], 3000 nM | 6.57 | –
[6], 4.1 nM | 3.11 | –
[6], 12.3 nM | 3.7 | –
[6], 37 nM | 3.52 | –
[6], 111.1 nM | 3.17 | –
[6], 333.3 nM | 3.7 | –
[6], 1000 nM | 3.58 | –
[6], 3000 nM | 3.53 | –
[7], 4.1 nM | 1.82 | –
[7], 12.3 nM | 4.96 | –
[7], 37 nM | 6.24 | –
[7], 111.1 nM | 8.39 | –
[7], 333.3 nM | 8.07 | –
[7], 1000 nM | 6.94 | –
[7], 3000 nM | 6.61 | –
[8], 4.1 nM | – | 0.636
[8], 12.3 nM | – | 0.643
[8], 37 nM | – | 0.644
[8], 111.1 nM | – | 0.62
[8], 333.3 nM | – | 0.595
[8], 1000 nM | – | 0.629
[8], 3000 nM | – | 0.544
[9], 4.1 nM | – | 0.376
[9], 12.3 nM | – | 0.25
[9], 37 nM | – | 0.241
[9], 111.1 nM | – | 0.201
[9], 333.3 nM | – | 0.2
[9], 1000 nM | – | 0.243
[9], 3000 nM | – | 0.191
[10], 4.1 nM | – | 0.713
[10], 12.3 nM | – | 0.528
[10], 37 nM | – | 0.45
[10], 111.1 nM | – | 0.412
[10], 333.3 nM | – | 0.351
[10], 1000 nM | – | 0.305
[10], 3000 nM | – | 0.174
[11], 4.1 nM | – | 0.758
[11], 12.3 nM | – | 0.677
[11], 37 nM | – | 0.577
[11], 111.1 nM | – | 0.57
[11], 333.3 nM | – | 0.501
[11], 1000 nM | – | 0.447
[11], 3000 nM | – | 0.373
[12], 4.1 nM | – | 0.902
[12], 12.3 nM | – | 0.682
[12], 37 nM | – | 0.589
[12], 111.1 nM | – | 0.552
[12], 333.3 nM | – | 0.376
[12], 1000 nM | – | 0.145
[12], 3000 nM | – | 0.177
[13], 4.1 nM | – | 0.491
[13], 12.3 nM | – | 0.379
[13], 37 nM | – | 0.428
[13], 111.1 nM | – | 0.351
[13], 333.3 nM | – | 0.32
[13], 1000 nM | – | 0.269
[13], 3000 nM | – | 0.314
[14], 4.1 nM | – | 0.727
[14], 12.3 nM | – | 0.418
[14], 37 nM | – | 0.323
[14], 111.1 nM | – | 0.212
[14], 333.3 nM | – | 0.167
[14], 1000 nM | – | 0.178
[14], 3000 nM | – | 0.148

CC(C)N1CCN(c2ccc(OCC3COC(Cn4cncn4)(c4ccc(Cl)cc4Cl)O3)cc2)CC1 (stereo unspecified) [Terconazole]
Conditions | phenotypic distance | surviving fraction
[1], 4.1 nM | 0.835 | –
[1], 12.3 nM | 0.931 | –
[1], 37 nM | 1.01 | –
[1], 111.1 nM | 0.79 | –
[1], 333.3 nM | 0.822 | –
[1], 1000 nM | 0.77 | –
[1], 3000 nM | 1.17 | –
[2], 4.1 nM | 0.557 | –
[2], 12.3 nM | 1.01 | –
[2], 37 nM | 0.47 | –
[2], 111.1 nM | 0.863 | –
[2], 333.3 nM | 0.868 | –
[2], 1000 nM | 0.76 | –
[2], 3000 nM | 2.39 | –
[3], 4.1 nM | 0.687 | –
[3], 12.3 nM | 5.3 | –
[3], 37 nM | 0.523 | –
[3], 111.1 nM | 0.619 | –
[3], 333.3 nM | 0.667 | –
[3], 1000 nM | 0.49 | –
[3], 3000 nM | 0.901 | –
[4], 4.1 nM | 0.517 | –
[4], 12.3 nM | 1.12 | –
[4], 37 nM | 0.485 | –
[4], 111.1 nM | 0.473 | –
[4], 333.3 nM | 0.562 | –
[4], 1000 nM | 0.745 | –
[4], 3000 nM | 0.672 | –
[5], 4.1 nM | 0.486 | –
[5], 12.3 nM | 0.855 | –
[5], 37 nM | 0.706 | –
[5], 111.1 nM | 0.737 | –
[5], 333.3 nM | 0.686 | –
[5], 1000 nM | 0.994 | –
[5], 3000 nM | 1.83 | –
[6], 4.1 nM | 0.79 | –
[6], 12.3 nM | 0.643 | –
[6], 37 nM | 0.472 | –
[6], 111.1 nM | 0.647 | –
[6], 333.3 nM | 0.465 | –
[6], 1000 nM | 0.53 | –
[6], 3000 nM | 2.3 | –
[7], 4.1 nM | 0.465 | –
[7], 12.3 nM | 0.601 | –
[7], 37 nM | 0.61 | –
[7], 111.1 nM | 0.332 | –
[7], 333.3 nM | 0.688 | –
[7], 1000 nM | 0.505 | –
[7], 3000 nM | 1.09 | –
[8], 4.1 nM | – | 0.997
[8], 12.3 nM | – | 0.89
[8], 37 nM | – | 0.908
[8], 111.1 nM | – | 0.85
[8], 333.3 nM | – | 0.987
[8], 1000 nM | – | 0.952
[8], 3000 nM | – | 0.964
[9], 4.1 nM | – | 1.04
[9], 12.3 nM | – | 0.925
[9], 37 nM | – | 0.922
[9], 111.1 nM | – | 1.01
[9], 333.3 nM | – | 0.96
[9], 1000 nM | – | 0.889
[9], 3000 nM | – | 0.873
[10], 4.1 nM | – | 0.892
[10], 12.3 nM | – | 0.918
[10], 37 nM | – | 0.999
[10], 111.1 nM | – | 0.856
[10], 333.3 nM | – | 0.988
[10], 1000 nM | – | 1.02
[10], 3000 nM | – | 0.958
[11], 4.1 nM | – | 0.941
[11], 12.3 nM | – | 0.827
[11], 37 nM | – | 0.91
[11], 111.1 nM | – | 1.04
[11], 333.3 nM | – | 1.01
[11], 1000 nM | – | 1.1
[11], 3000 nM | – | 0.994
[12], 4.1 nM | – | 0.938
[12], 12.3 nM | – | 0.927
[12], 37 nM | – | 0.891
[12], 111.1 nM | – | 0.99
[12], 333.3 nM | – | 0.933
[12], 1000 nM | – | 1.03
[12], 3000 nM | – | 0.813
[13], 4.1 nM | – | 1.15
[13], 12.3 nM | – | 1.04
[13], 37 nM | – | 0.91
[13], 111.1 nM | – | 0.941
[13], 333.3 nM | – | 1.09
[13], 1000 nM | – | 1.02
[13], 3000 nM | – | 0.951
[14], 4.1 nM | – | 0.985
[14], 12.3 nM | – | 0.938
[14], 37 nM | – | 0.963
[14], 111.1 nM | – | 1
[14], 333.3 nM | – | 0.978
[14], 1000 nM | – | 1
[14], 3000 nM | – | 0.948
